Two molecules from US6576647B2, “Pseudopolymorph of (—)-cis-2-(2-chlorophenyl)-5,7-dihydroxy-8[4R-(3S-hydroxy -1-methyl)piperidinyl]-4H-1-benzopyran-4-one” (Aventis Pharmaceuticals Inc., priority 2000, dated 2003) can be followed below.

“Also recorded” adds a separate entry of the source.

Series [1] can be described thus: Variable humidity X-ray powder diffraction (crystallinity versus relative humidity). The note with it: variable humidity XRPD; hydrochloride. It counts as physicochemical. The text has this:
X-ray Powder Diffraction (XRPD) patterns were taken on a Scintag XDS 2000 θ/θ diffractometer operating with copper radiation at 45 kV and 40 mA, using a Kevex Psi Peltier-cooled silicon detector. Source slits of 2 and 4 mm, and detector slits of 0.5 and 0.3 mm were used for data collection. Form II samples were gently milled using an agate mortar and pestle for approximately one minute, placed in a platinum sample pan, and leveled using a glass microscope slide. Samples taken during or post hygroscopicity testing were not milled due to the limited amount of sample available. In each case, powder diffraction patterns were scanned from 2° to 42° 2θ at 1°/minute. Calibration of the XDS 2000 was verified using Silicon powder.
For variable relative humidity experiments, the larger capacity DVS-2 Surface Measurement Systems Dynamic Vapor Sorption analyzer was used. Using a flow rate of 500 cc/min, Form II was held at desired RH settings and sampled periodically for XRPD analysis. Unmilled material was placed in the platinum sample pan and leveled using a glass microscope slide prior to analysis using the above conditions.

Series [2] is described as follows: Hygroscopicity screening by Dynamic Water Vapor Sorption Analysis (DVS). It counts as physicochemical. The note with it: for weight gain: 25° C. and 40° C.; for hygroscopicity assessment: conclusion from DVS weight gain, hydrochloride. The protocol: Hygroscopicity Screening—Comparison of Form I and Form II
Dynamic Vapor Sorption (DVS) Analysis Studies were Conducted on Form II Versus Form I.
Dynamic Water Vapor Sorption Analysis (DVS)
Form II was studied at 25° C. using a Surface Measurement Systems Dynamic Vapor Sorption DVS-1 analyzer. A sample in the range of about 14.8 mg was placed in a tared quartz sample holder at an initial ambient room humidity setting of about 48% Relative Humidity (RH). A total wet/dry nitrogen flow rate of 200 cc/min was used throughout the study. The following full cycle program was initiated: 30 min at the initial ambient RH, followed by settings of 0, 20, 40, 60, 80, 90, 95 and 98% RH, with exposure time at each humidity set point dependent upon dm/dt being less than 0.001% for 60 min. The maximum time allowed at any one humidity set point was 24 hours. For a full cycle, data collection took about 4 days to complete. After the full cycle the sample was maintained at the same RH as the initial ambient starting RH.
Form I was studied at 25° C. and 40° C. using the DVS-1 analyzer. Data was collected over two full cycles. Samples of 10.4 and 16.7 mg were placed into respective tared quartz sample holders at an initial ambient room humidity setting of about 46% RH and 33% RH, respectively. For this study, an additional 75% RH set point was used. For 2 full cycles, data collection took about 7 days at 25° C. and about 17 days at 40° C. to complete. After completion of each 2 cycle study, the samples were maintained at the same RH as the initial ambient starting RH.

On to `CN1CC[C@H](c2c(O)cc(O)c3c(=O)cc(-c4ccccc4Cl)oc23)[C@H](O)C1.Cl` (relative stereo) [Form I, (−)-cis-2-(2-chlorophenyl)-5,7-dihydroxy-8[4R-(3S-hydroxy-1-methyl)piperidinyl]-4H-1-benzopyran-4-one hydrochloride], for which, in series [1], the “crystallinity as the humidity is increased” value is listed as “retains its crystallinity until extremely high relative humidity is reached”. The weight gain entry is recorded as “about 30%” in series [2] (DVS, above 90% RH) and 1-2% in series [2] (DVS, through about 75% RH). Further, the hygroscopicity assessment result in series [2] is given as “hygroscopic above 75% RH; also recorded: less hygroscopic than Form II”.
Take `CN1CC[C@H](c2c(O)cc(O)c3c(=O)cc(-c4ccccc4Cl)oc23)[C@H](O)C1.Cl` (relative stereo) [Form II, (−)-cis-2-(2-chlorophenyl)-5,7-dihydroxy-8[4R-(3S-hydroxy-1-methyl)piperidinyl]-4H-1-benzopyran-4-one hydrochloride, reference compound]: in series [1], the “crystallinity as the humidity is increased” value is recorded as “apparent decrease in crystallinity”. Moreover, the additional weight gain in series [2] (DVS, above 60% relative humidity, 25° C.) is 15-20%. For the same molecule, the hygroscopicity assessment result in series [2] is listed as “hygroscopic”.
